Laboratory results: patent publication US4515722A, “Phosphatidyl inositol analogs useful as anti-inflammatory/analgesic agents” (Merck & Co., Inc., priority 1982, dated 1985)

Columns and labels:
phospholipase C = settings: background statement; cited from earlier work
[1] = tested on: Phosphatidyl inositol-specific phospholipase C; test: Phosphatidyl inositol-specific phospholipase C assay with sonicated human platelets; assay type: biochemical
Description: A. Protocol--Phosphatidyl inositol-specific phospholipase C assays. The assays were performed as follows: A mixture of PI (Sigma) and (^3 H-inositol)-PI in CHCl3 are blown to dryness under N2 and sonicated into a buffer containing DOC and CaCl2 so that the final concentrations in each 200 λ assay are:
0.5 mg/ml DOC containing an appropriate amount of an active compound
in 50 mM Hepes, 100 mM NaCl, 0.5 mg/ml BSA pH 7.
An aliquot of sonicated human platelets, 5×10^9 /ml, is added; the reaction is stopped after 10 minutes with a chloroform/methanol/H2 O solution and the upper water phase is counted to detect water-soluble inositol counts. The pH was checked during each assay using pH paper to verify that none of the compounds affected this parameter.

[2] = Table II, Concentration 0.20 mM

## c1ccc2c(c1)Nc1ccccc1S2 [phenothiazine]
Phospholipase C
  inhibition of phospholipase C: inhibited

## CCCCCCCCCCCCCCCC(=O)OCC(CCP(=O)(O)OC1C(O)C(O)C(O)C(O)C1O)OC(=O)CCCCCCCCCCCCCCC (stereo not shown) [n-C15 H31 CO, 3,4-Dipalmitoyloxybutyl-1-phosphonyl-myo-inositol]
[1]; Table I, Conc. 0.05 mM
  % Inhibition: 37%
[1]; Table I, Conc. 0.5 mM
  % Inhibition: 82%
[1]; Table I, Conc. 1.0 mM
  % Inhibition: 84%

## CCCCCCCCCCCCCCCCCCP(=O)(O)O[C@@H]1[C@H](O)[C@H](O)[C@@H](O)[C@H](O)[C@H]1O (relative stereo) [1-O--(octadecylphosphonyl)-myo-inositol]
[1]; Table II, Concentration 0.105 mM
  % Inhibition: 12%
[1]; Table II, Concentration 1.05 mM
  % Inhibition: 66%

## CCCCCCCCCCCCCCCCCCP(=O)(O)OC1C(O)C(O)C(O)C(O)C1O (stereo not shown) [5-O--(octadecylphosphonyl)-myo-inositol]
[1]; Table II, Concentration 0.050 mM
  % Inhibition: 27%
[1]; [2]
  % Inhibition: 60%
[1]; Table II, Concentration 1.00 mM
  % Inhibition: 81%

## CCCCCCCCCCCCCCCCCCP(=O)(O)O[C@H]1[C@H](O)[C@@H](O)[C@H](O)[C@@H](O)[C@H]1OC (relative stereo) [DL-2-O--methyl-1-O--(octadecylphosphonyl)-myo-inositol]
[1]; Table II, Concentration 0.122 mM
  % Inhibition: 53%
[1]; Table II, Concentration 1.22 mM
  % Inhibition: 83%

## CCCCCCCCCCCCP(=O)(O)O[C@H]1[C@H](O)[C@@H](O)[C@H](OP(=O)(O)CCCCCCCCCCCC)[C@@H](O)[C@H]1O (relative stereo) [Example 20, 1,4-di-O-(dodecylphosphonyl)myo-inositol]
[1]; Table II, Concentration 0.043 mM
  % Inhibition: 20%
[1]; Table II, Concentration 0.432 mM
  % Inhibition: 64%

## CCCCCCCCCC(=O)OC(CCP(=O)(O)OC1C(O)C(O)C(O)C(O)C1O)COC(=O)CCc1ccc(Oc2ccccc2)cc1 (stereo not shown) [.0.O.0.CH2 CH2 CO]
[1]; Table I, Conc. 0.1 mM
  % Inhibition: 47%
[1]; Table I, Conc. 0.5 mM
  % Inhibition: 66%
[1]; Table I, Conc. 1.0 mM
  % Inhibition: 76%

## CCCCCCCCCC(=O)OCC(CCP(=O)(O)OC1C(O)C(O)C(O)C(O)C1O)OC(=O)CCCCCCCCC (stereo not shown) [n-C9 H19 CO, 3,4-Didecanoyloxybutyl-1-phosphonyl-myo-inositol]
[1]; Table I, Conc. 1.0 mM
  % Inhibition: 68%

## CCCCCCCCCCCCCCCCCCP(=O)(O)O[C@H]1[C@H](O)[C@@H](O)[C@H](OP(=O)(O)CCCCCCCCCCCCCCCCCC)[C@@H](O)[C@H]1O (relative stereo) [1,4-di(octadecylphosphonyl)-myo-inositol]
[1]; Table II, Concentration 0.033 mM
  % Inhibition: 18%
[1]; Table II, Concentration 0.33 mM
  % Inhibition: 37%

## CCCCCCCCCCCCP(=O)(O)O[C@@H]1[C@H](O)[C@H](O)[C@@H](O)[C@H](O)[C@H]1O (relative stereo) [1-O--(dodecylphosphonyl)-myo-inositol]
[1]; [2]
  % Inhibition: 51%
[1]; Table II, Concentration 2.0 mM
  % Inhibition: 82%

## CCCCCCCCCC(=O)OC(CCP(=O)(O)OC1C(O)C(O)C(O)C(O)C1O)COC(=O)Cc1ccc(-c2ccccc2)cc1 (stereo not shown) [.0.-.0.CH2 CO, 3-Decanoyloxy-4-(p-diphenylacetyloxy)-butyl-1-phosphonyl-myo-inositol]
[1]; Table I, Conc. 0.5 mM
  % Inhibition: 61%
[1]; Table I, Conc. 1.0 mM
  % Inhibition: 75%

## CCCCCCCC(=O)OCC(CCP(=O)(O)OC1C(O)C(O)C(O)C(O)C1O)OC(=O)CCCCCCC (stereo not shown) [n-C7 H15 CO, 3,4-Dioctanoyloxybutyl-1-phosphonyl-myo-inositol]
[1]; Table I, Conc. 1.0 mM
  % Inhibition: 64%

## CCCCCCCCCCCCCCCCCCP(=O)(O)O[C@H]1[C@H](O)[C@@H](O)[C@H](O)[C@@H](O)[C@]1(O)CO (relative stereo) [DL-2-C--hydroxymethyl-1-O--octadecanephosphonyl-myo-inositol]
[1]; Table II, Concentration 0.115 mM
  % Inhibition: 51%
[1]; Table II, Concentration 1.15 mM
  % Inhibition: 89%

## CCCCCCCC(=O)OCC(CCP(=O)(OC)OC1C(O)C(O)C(O)C(O)C1O)OC(=O)CCCCCCC (stereo not shown) [(M) (M) CH3]
[1]; Table I, Conc. 0.5 mM
  % Inhibition: 50%
[1]; Table I, Conc. 1.0 mM
  % Inhibition: 72%
